Assay results reported in US20240342121A1, “THE USE OF BETA-HYDROXYBUTYRATES FOR THE TREATMENT OR PREVENTION OF ANEURYSMS AND DISSECTIONS” (priority 2021, published 2024).
Entries after “also recorded” stand apart in the source; their conditions may differ.

Assays:
CaCl2-induced AAA = CaCl2-induced AAA animal model, post-treatment; type: in vivo, mouse
Procedure: FIGS. 5A-5J. (a) Representative image of aorta which developed CaCl2)-induced AAA, and post-treated with KD, KE, βHB, s-βHB, or ABT-737. KD is provided to mice for 4 weeks, KE is administrated with drinking water, βHB, s-βHB or ABT-737 are IP injected for 2 weeks with 48h intervals. (b) Incidence of AAA by CaCl2) treatment and proportion of mice recovered from the AAA after post-treatment of KD, KE, βHB and s-βHB for 2 weeks. (c) Time-dependent observation of inner diameter after CaCl2) treatment and post-treatment of KD or KE (28˜56 days after surgery). (d) Comparison of ultrasound images of CaCl2)-induced AAA to the identical aorta post-treated with βHB for 2 weeks. (e) H&E staining of aorta from the mice developed with CaCl2)-induced AAA, and post-treated with KD, KE, βHB, and s-βHB. (f) SA β-Gal activity assay on aorta which developed CaCl2)-induced AAA, and post-treated with KD, KE, βHB, s-βHB, or ABT-737. (g) Quantitation of senescent area on aorta developed with CaCl2)-induced AAA, and post-treated with KD, KE, βHB, s-βHB. (h) Verhoeff Van Gieson/EVG staining of abdominal aorta developed with CaCl2)-induced AAA, post-treated with KD, KE, βHB and s-βHB. (i) Average number of elastic fibers on abdominal aorta presented at FIG. 5H. (j) Measurement of Pulse Wave Velocity (PWV) on CaCl2)-infused mice with post-treatment of KD, KE, βHB, and s-βHB.
To confirm the possibility that the therapeutic effect of βHB on AAA is not only applied to AII-induced AAA, the CaCl2)-induced AAA animal model was also examined as well (FIG. 5A).
To further validate the therapeutic efficacy of s-βHB on aneurysms, we used a CaCl2-induced AAA animal model as well as an angiotensin II infusion model. […] Two-way ANOVA, s-βHB vs βHB, #P<0.01, n=10. Since the elimination of senescent SMCs is critical for the recovery of AAA, we investigated that s-βHB is also effective to remove senescent cells in CaCl2)-induced aneurysms. […] Student's T-test for s-βHB vs βHB, ^#P<0.05, n=8.

[1] = system: Oct4 overexpressed senescent SMCs; assay: Oct4 overexpressed senescent SMCs (SA β-Gal, Western blot); type: cell-based
Source text: FIGS. 14A-14B show (a) SA β-Gal activity on Oct4 overexpressed SMCs with or without βHB treatment (2 days). Irradiated SMCs were infected by Lentivirus containing Crispr-dCas9-VP64_Oct4 plasmid prior to treating βHB. The arrow indicates localized senescent cell mass. (b) Western blot analysis after lentivirus (Crispr-dCas9-VP64_Oct4) infection into senescent SMCs without βHB treatment for 1 day or 2 days.
We proposed that Oct4 upregulation in senescence forms senescent spheroid-like cell mass and asymmetric configuration of aneurysms. To validate our central hypothesis, we overexpressed Oct4 in senescent SMCs using the CRISPR-dCas9-VP64 system to determine the role of Oct4. […] Localized increase of senescence may be highly associated with asymmetric dilation of aneurysms. […] We supposed that βHB prevents or reverses Oct4-induced senescence of SMCs, consequently reducing the size of aneurysms. To investigate the role of βHB in aneurysms, we assess the possibility of cellular reprogramming in senescent SMCs in the condition of Oct4 overexpression. […] In particular, a moderate increase of FAP (Fibroblast Activation Protein) provides a potential for reprogramming resulting in transdifferentiation of SMCs to myofibroblast. Recovered SM22 expression in Oct4 overexpressed senescent SMCs supposed that βHB converts the Oct4 function in dedifferentiation into a reprogramming-related role. We considered an βHB-induced epigenetic alteration of senescent cells contributing to Oct4-dependent cellular reprogramming based on this unique observation.

[2] = system: angiotensin II (AII)-induced AAA; assay: AII-induced AAA mouse model, post-treatment; type: in vivo; settings: injection every other day for two weeks, FIG. 2E
senescent SMCs = assay: Flow cytometry (FACS) apoptosis analysis, PI and Annexin V; type: cell-based; settings: FIGS. 2B, 2C
Procedure: FIGS. 2A-2L. (a) Cytotoxicity assay of normal smooth muscle cells (NS) and senescent smooth muscle cells (SMCs). Replicative senescent SMCs (RS) and premature senescent SMCs, stimulated by H2O2 (HP), arsenic (Ars), and Nutlin 3a (Nut) treatment were treated with βHB, s-βHB, and ABT-737. (b) Flow cytometry analysis of apoptosis by βHB or s-βHB in radiation (10 Gy)-induced senescent SMC. (c) Quantitation of apoptotic cell and senescent cell after treating βHB and s-βHB in radiation-induced senescent SMC. (d) Representative aorta image of AII-infused mice with post-treatment of ABT-737, βHB and s-βHB. (e) External diameter of abdominal aorta infused with AII and post-treated with ABT-737 βHB and s-βHB. (f) SA-βGal activity assay of the whole aorta infused with AII, and post-treated with ABT-737, KD, or KE. (g) Quantitation of senescent area on aorta of AII-infused mice, and post-treated with KD, KE and ABT-737. (h) TUNEL assay on the abdominal aorta of AII infused mice, and treated with ABT-737, βHB, or s-βHB. SM-α Actin (SMA) and DAPI are co-stained after TUNEL reaction. (i) Caspase 3 activity assay on normal SMCs (NC) treated with βHB, or s-βHB, and ABT-737 comparing to normal cells pretreated with Nutlin-3a. (j) Caspase 3 activity assay on senescent SMCs (SNC) treated with βHB, or s-βHB, and ABT-737 compared to senescent cells pretreated with pifithrin-α. […]

In the case of C[C@@H](O)CC(=O)O [βHB, (R)-3-Hydroxybutyrate], the “abnormal curvature on aortic wall (ultrasound)” value (CaCl2-induced AAA; FIG. 5D) was “repaired abnormal curvature on aortic wall”, the “recovery from CaCl2-induced AAA” value (CaCl2-induced AAA; FIGS. 5A and 5B) was “Effective recovery” and the “senescent cells, SA β-gal assay” value (CaCl2-induced AAA; FIGS. 5F and 5G) was “significantly reduced; also recorded: less effective than KD, KE and s-βHB”. For the same compound, the “elastic laminar / vascular integrity” value (CaCl2-induced AAA; FIGS. 5H and 5I) was “improved vascular integrity”, the “recovery rate of AAA” value (CaCl2-induced AAA; comparison between treatments, FIG. 5B) was “less effectiveness compared to s-βHB, KD, and KE treatment” and the AAA progression (CaCl2-induced AAA; post-treatment after four weeks, FIG. 5C) was “inhibited AAA progression”. For the same compound, the “SM22 and β-galactosidase in Oct4 overexpressed-senescent cells” value ([1]; Oct4 overexpressed, FIG. 14B) was “recovers SMC maturation marker (SM22) and reduced senescence marker (β-galactosidase)”, the “localized senescence, SA β-Gal activity” value ([1]; Oct4 overexpression by CRISPR-dCas9-VP64, FIG. 14A) was “significantly reverses or prevents the development of localized senescence” and the “SM22 in senescent SMCs without Oct4 activation” value ([1]; without Oct4 activation, FIG. 14B) was “does not recover SM22”. For the same compound, the “external diameter of the abdominal aorta” value [2] was “significantly reduced” and the “apoptosis of senescent SMCs” value (senescent SMCs) was “induced targeted apoptosis of senescent SMCs”.
